Source: patent EP4678639A1, “SALT OF BENZIMIDAZOLE DERIVATIVE” (JW Pharmaceutical Corporation, priority 2023, dated 2024)
Counter-ions that a name gives are not always drawn.

Experiments:
[1] = Solid-state stress stability test (humidity 90 % RH); conditions: for Initial (%) Degradant / Initial (%) Total Related substances: Table 9, initial; for Remarks: state of the solid
Procedure: (§1) Operation and Calculation: The blank solution, standard solution, and test solution were sequentially tested under the instrument operating conditions according to the liquid chromatography method in the General Test Methods of the 12th Edition of the Korean Pharmacopoeia, and the amount of related substances was calculated using the following equation. Amount of each related; substance (%) = (AT)/(AS) × (CS)/(CT) × (Molecular weight; of the sample)/(Molecular weight; of the standard; product) × P × (1)/(RR; F) [formula] AT = Area of each related substance peak obtained from the test solution AS = Area of the tegoprazan peak obtained from the standard solution CS = Concentration of standard solution (mg/mL) CT = Concentration of test solution (mg/mL) P = Purity/Assay/Potency (%) of standard product RRF = Relative response factor (1.0)
(§2) A solid-state stability comparative test was conducted on each of the above-mentioned prepared tegoprazan acid addition salts. The stability comparative test was conducted for 1 month under the conditions shown in Table 6 below in accordance with The International Council for Harmonisation of Technical Requirements for Pharmaceuticals for Human Use (ICH) guideline, and the purity of the acid addition salt, total related substances, and the content of degradants were measured by HPLC at the initial time point and after 1 month. Total related substances and degradants were measured according to the related substance test method (HPLC).
3) Stress Stability (humidity 90 % RH)

[2] = Solid-state stress stability test (temperature 60 °C); conditions: for After 1 Month (%) Degradant / After 1 Month (%) Total Related substances / Change (%) Degradant / total related substances increased after 1 month / change in appearance, change in the color of the solid / Remarks: 60 °C; for Change (%) Degradant: 1 month vs initial; for Initial (%) Degradant / Initial (%) Total Related substances: Table 8, initial; for After 1 Month (%) Degradant / After 1 Month (%) Total Related substances / change in appearance, change in the color of the solid / Remarks: 1 month; for Remarks: appearance
Procedure: as §1, §2
2) Stress Stability Test (temperature 60 °C)

[3] = Photostability test, ultraviolet light (200 W·hr/m2) exposure; conditions: for After Ultraviolet Light Exposure (200 W hr/m2)(%) Degradant / After Ultraviolet Light Exposure (200 W hr/m2)(%) Total Related substances: Table 10, UV 200 W·hr/m2, PE bag; for Change (%) Degradant: Table 10, after UV exposure vs initial; for Initial (%) Degradant / Initial (%) Total Related substances: Table 10, initial
Procedure: (§3) A photostability comparative test was conducted on each of the above-mentioned prepared tegoprazan acid addition salts. The test was conducted by exposing the sample to light with an energy of 200 W hr/m^2 of ultraviolet light and 1.2 Mlux hr of visible light in accordance with The International Council for Harmonisation of Technical Requirements for Pharmaceuticals for Human Use (ICH) guideline, with the samples packaged in a single PE bag and spread thinly enough to ensure exposure to the light source, taking humidity stability into consideration. The purity of the acid addition salts and the change in the amount of degradants at the initial time point and after exposure to ultraviolet light or visible light were measured by HPLC.

[4] = Solid-state accelerated stability test (40 ± 2 °C/RH 75 ± 5 %); conditions: for Change (%) Degradant: 1 month vs initial; for Initial (%) Total Related substances / Initial (%) Degradant: Table 7, initial; for Initial (%) Degradant: degradant of Formula 4
Procedure: as §1, §2

[5] = Photostability test, visible light (1.2 Mlux·hr) exposure; conditions: for Change (%) Degradant: Table 11, after exposure vs initial; for After (%) Degradant / After (%) Total Related substances: Table 11 under heading Visible Light (1.2 Mlux-hr) Exposure Test
Procedure: as §3

[6] = water
Procedure: The measurement was conducted according to the method described under "Solubility" in the General Notices of Appendix 1 of the 12th Edition of the Korean Pharmacopoeia. Each solubility was expressed by measuring the solubility of the acid addition salt itself, without conversion to the tegoprazan freebase.

[7] = Raw material stability test versus tegoprazan freebase (60 °C or 90 % RH); format: physicochemical; conditions: for change in appearance, 60 °C / change in appearance, 90 % RH: 3 weeks; for amount of total related substances generated (FIG. 13): stress temperature/humidity storage, compared to tegoprazan freebase
[8] = Stability test by formulation (tablets and orally disintegrating tablets, 60 °C or 90 % RH); format: physicochemical; conditions: tablets and orally disintegrating tablets prepared with the named salt, versus reference drug; for amount of total related substances generated (FIGS. 18 and 19): 60 °C or 90 % RH, 1 or 3 weeks; for degree of weight gain (FIG. 17): 90 % RH, 3 weeks
Procedure: The amount of total related substances under stress storage conditions (temperature/humidity) was measured using liquid chromatography (HPLC) using an Infinity 1260 (Agilent) equipment. The analysis conditions are as follows.
To minimize the influence of additives, each test formulation was selected with the same additives as the reference drug (K-CAB tablets 50 mg, K-CAB orally disintegrating tablets 50 mg) disclosed in the Ministry of Food and Drug Safety Pharmaceutical Integrated Information System, and to minimize differences due to the granule manufacturing process, the formulation was prepared using the simple mixing (direct compression) method. Each formulation was as shown in Tables 16 and 17 below, and the stability conditions were conducted for each formulation under the storage conditions of 60 °C, which is a stress temperature condition, and 90 % RH, which is a stress humidity condition, respectively.
Stability tests were conducted under stress storage conditions (temperature/humidity) for each formulation. The results of measuring the amount of total related substances after storage under stress conditions for 1 week or 3 weeks are shown in FIG. 18 and FIG. 19.

[9] = Liquid stability comparative test (20 mg/mL in purified water, 40 °C, 24 hours, HPLC); format: physicochemical; conditions: for After 24 hours Purity (%) / Initial Purity (%) / After 24 hours Degradant (%) / Initial Degradant (%): 20 mg/mL in purified water; for Initial Purity (%) / Initial Degradant (%): initial time point; for After 24 hours Degradant (%) / Initial Degradant (%): degradant of Formula 4; for Amount of Change Degradant (%): initial vs after 24 hours at 40 °C
Procedure: The analysis conditions are as follows.
Each sample was dissolved in purified water to prepare a solution with a concentration of 20 mg/mL, stored at an external temperature of 40 °C, and analyzed by HPLC at the initial time point and after 24 hours to measure purity, and the change in the generated degradant (Formula 4) was measured. The analysis of total related substances and degradants was performed by taking a liquid from a solution prepared at a concentration of 20 mg/mL, diluting it to a concentration of 4 mg/mL with the diluent of the related substance test method (HPLC), and measuring it as a test solution, and analyzing it according to the related substance test method (HPLC).

[10] = 40 ± 2 °C / RH 75 ± 5 %, 1 month
[11] = liquid stability, 40 °C, 24 hours

## Cc1nc2c(O[C@H]3CCOc4cc(F)cc(F)c43)cc(C(=O)N(C)C)cc2[nH]1 [Hemisalicylate Salt]
[1]; 90 % RH, 1 month
  After 1 Month (%) Total Related substances: 1.759%
[1]
  Initial (%) Degradant: 0.001%
  Initial (%) Total Related substances: 0.208%
[2]
  After 1 Month (%) Degradant: 0.039%
  After 1 Month (%) Total Related substances: 0.268%
  Change (%) Degradant: 0.038%
  Initial (%) Degradant: 0.001%
  Initial (%) Total Related substances: 0.208%
[3]
  After Ultraviolet Light Exposure (200 W hr/m2)(%) Degradant: 0.360%
  After Ultraviolet Light Exposure (200 W hr/m2)(%) Total Related substances: 1.360%
  Change (%) Degradant: 0.359%
  Initial (%) Degradant: 0.001%
  Initial (%) Total Related substances: 0.208%
[3]; Table 10, after UV exposure, appearance
  Remarks: Discolorat ion
[3]; ultraviolet light exposure
  changes in appearance: changes in appearance
[4]; [10]
  After 1 Month (%) Degradant: 0.004%
  After 1 Month (%) Total Related substances: 0.208%
[4]; 40 ± 2 °C / RH 75 ± 5 %
  Change (%) Degradant: 0.003%
[4]
  Initial (%) Total Related substances: 0.208%
  Initial (%) Degradant: 0.001%
[4]; accelerated stability
  purity change after 1 month: ≤ 0.1%
[5]
  Change (%) Degradant: 0.244%
  After (%) Degradant: 0.245%
  After (%) Total Related substances: 1.021%
[5]; Table 11, after exposure, appearance
  Remarks: Discolorat ion
[5]; Table 11, initial
  Initial (%) Degradant: 0.001%
  Initial (%) Total Related substances: 0.208%
[5]; visible light exposure
  changes in appearance: changes in appearance
[6]
  solubility / aqueous solubility: ≤ 1.0 mg/mL

## Cc1nc2c(O[C@H]3CCOc4cc(F)cc(F)c43)cc(C(=O)N(C)C)cc2[nH]1 [Maleate Salt]
[1]; 90 % RH
  absorb moisture and deliquesce / melted: absorb moisture and deliquesce
[1]; 90 % RH, 1 month
  Remarks: Melted
[1]
  Initial (%) Degradant: 0.027%
  Initial (%) Total Related substances: 0.357%
[2]
  total related substances increased after 1 month: ≥ 5.0%
  After 1 Month (%) Degradant: 1.248%
  After 1 Month (%) Total Related substances: 6.070%
  Change (%) Degradant: 1.221%
  Initial (%) Degradant: 0.027%
  Initial (%) Total Related substances: 0.357%
[3]
  After Ultraviolet Light Exposure (200 W hr/m2)(%) Degradant: 0.032%
  After Ultraviolet Light Exposure (200 W hr/m2)(%) Total Related substances: 0.354%
  Change (%) Degradant: 0.005%
  Initial (%) Degradant: 0.027%
  Initial (%) Total Related substances: 0.357%
[4]; [10]
  After 1 Month (%) Degradant: 0.083%
  After 1 Month (%) Total Related substances: 0.679%
[4]; 40 ± 2 °C / RH 75 ± 5 %
  Change (%) Degradant: 0.056%
[4]
  Initial (%) Total Related substances: 0.357%
  Initial (%) Degradant: 0.027%
[4]; accelerated stability
  increase in total related substances after 1 month: ≥ 0.3%
[5]
  Change (%) Degradant: 0.006%
  After (%) Degradant: 0.033%
  After (%) Total Related substances: 0.508%
[5]; Table 11, initial
  Initial (%) Degradant: 0.027%
  Initial (%) Total Related substances: 0.357%
[6]
  solubility / aqueous solubility: ≤ 1.0 mg/mL

## Cc1nc2c(O[C@H]3CCOc4cc(F)cc(F)c43)cc(C(=O)N(C)C)cc2[nH]1 [Methanesulfonate Salt (Crystalline Form)]
[1]; 90 % RH
  absorb moisture and deliquesce / melted: absorb moisture and deliquesce
[1]; 90 % RH, 1 month
  Remarks: Melted
[1]
  Initial (%) Degradant: 0.122%
  Initial (%) Total Related substances: 0.265%
[1]; Table 12 summary
  Change in Quality (%) 90 % RH (4 weeks) Degradant: Melted
  Change in Quality (%) 90 % RH (4 weeks) Purity: Melted
[2]
  total related substances increased after 1 month: ≥ 5.0%
  After 1 Month (%) Degradant: 4.167%
  After 1 Month (%) Total Related substances: 5.408%
  change in appearance, change in the color of the solid: change in appearance
  Change (%) Degradant: 4.045%
  Remarks: Discolorat ion
  Initial (%) Degradant: 0.122%
  Initial (%) Total Related substances: 0.265%
[2]; Table 12 summary
  Change in Quality (%) 60 °C (4 weeks) Degradant: 4.045%
  Change in Quality (%) 60 °C (4 weeks) Purity: -5.143%
[2]; Table 12 summary, remark in brackets under the 60 °C columns
  60 °C (4 weeks) appearance remark: (Discoloration)
[3]
  After Ultraviolet Light Exposure (200 W hr/m2)(%) Degradant: 0.168%
  After Ultraviolet Light Exposure (200 W hr/m2)(%) Total Related substances: 0.339%
  Change (%) Degradant: 0.046%
  Initial (%) Degradant: 0.122%
  Initial (%) Total Related substances: 0.265%
[3]; Table 12 summary
  Change in Quality (%) Light (Ultraviolet) Degradant: 0.046%
  Change in Quality (%) Light (Ultraviolet) Purity: 0.074%
[4]; [10]
  After 1 Month (%) Degradant: 0.518%
  After 1 Month (%) Total Related substances: 0.727%
[4]; 40 ± 2 °C / RH 75 ± 5 %
  Change (%) Degradant: 0.396%
[4]
  Initial (%) Total Related substances: 0.265%
  Initial (%) Degradant: 0.122%
[4]; Table 12 summary
  Change in Quality (%) Accelerated (4 weeks) Degradant: 0.396%
  Change in Quality (%) Accelerated (4 weeks) Purity: -0.462%
[4]; accelerated stability
  increase in total related substances after 1 month: ≥ 0.3%
[7]
  change in appearance, 60 °C: No change in appearance
  change in appearance, 90 % RH: Dissolved to transparency
  change in appearance, Initial: No change in appearance
  amount of total related substances generated (FIG. 13): significantly increased
[5]
  Change (%) Degradant: 0.086%
  After (%) Degradant: 0.208%
  After (%) Total Related substances: 0.412%
[5]; Table 11, initial
  Initial (%) Degradant: 0.122%
  Initial (%) Total Related substances: 0.265%
[5]; Table 12 summary
  Change in Quality (%) Light (Visible) Degradant: 0.086%
[8]
  amount of total related substances generated (FIGS. 18 and 19): significantly increased
  degree of weight gain (FIG. 17): greater
[9]; 40 °C, 24 hours
  After 24 hours Purity (%): 99.47%
  After 24 hours Degradant (%): 0.446%
[9]
  Initial Purity (%): 99.95%
  Initial Degradant (%): 0.028%
  Amount of Change Degradant (%): 0.42%
[9]; [11]
  increase in degradants (degradant of Formula 4): ≤ 0.5%

## Cc1nc2c(O[C@H]3CCOc4cc(F)cc(F)c43)cc(C(=O)N(C)C)cc2[nH]1 [Sulfate Salt]
[1]; 90 % RH, 1 month
  After 1 Month (%) Degradant: 14.500%
  After 1 Month (%) Total Related substances: 16.637%
  Remarks: Polymorp hic Transition
[1]; 90 % RH, 1 month vs initial
  Change (%) Degradant: 14.161%
[1]; 90 % RH, after 1 month
  polymorphic transition (PXRD): polymorphic transition occurred
[1]
  Initial (%) Degradant: 0.339%
  Initial (%) Total Related substances: 0.609%
[2]
  After 1 Month (%) Degradant: 2.345%
  After 1 Month (%) Total Related substances: 3.441%
  change in appearance, change in the color of the solid: change in appearance
  Change (%) Degradant: 2.006%
  Remarks: Discolorat ion
  Initial (%) Degradant: 0.339%
  Initial (%) Total Related substances: 0.609%
[3]
  After Ultraviolet Light Exposure (200 W hr/m2)(%) Degradant: 1.415%
  After Ultraviolet Light Exposure (200 W hr/m2)(%) Total Related substances: 1.748%
  Change (%) Degradant: 1.076%
  Initial (%) Degradant: 0.339%
  Initial (%) Total Related substances: 0.609%
[4]; [10]
  After 1 Month (%) Degradant: 0.712%
  After 1 Month (%) Total Related substances: 1.197%
[4]; 40 ± 2 °C / RH 75 ± 5 %
  Change (%) Degradant: 0.373%
[4]; 40 ± 2 °C / RH 75 ± 5 %, 1 month, appearance
  Remarks: Discolorat ion
[4]
  Initial (%) Total Related substances: 0.609%
  Initial (%) Degradant: 0.339%
[4]; accelerated stability
  increase in total related substances after 1 month: ≥ 0.3%
[4]; accelerated stability, 1 month
  change in appearance of the solid: discoloration
[7]
  change in appearance, 60 °C: Pungent odor
  change in appearance, 90 % RH: Pungent odor
  change in appearance, Initial: Pungent odor
  amount of total related substances generated (FIG. 13): significantly increased
[5]
  Change (%) Degradant: 1.934%
  After (%) Degradant: 2.273%
  After (%) Total Related substances: 2.754%
[5]; Table 11, initial
  Initial (%) Degradant: 0.339%
  Initial (%) Purity: 99.3%
  Initial (%) Total Related substances: 0.609%
[8]
  amount of total related substances generated (FIGS. 18 and 19): significantly increased
  degree of weight gain (FIG. 17): greater
[9]; 40 °C, 24 hours
  After 24 hours Purity (%): 93.95%
  After 24 hours Degradant (%): 5.414%
[9]
  Initial Purity (%): 99.89%
  Initial Degradant (%): 0.080%
  Amount of Change Degradant (%): 5.33%
[9]; [11]
  degradants formed after 24 hours of storage: ≥ 5%
  purity decreased: about 6%
